Assay results taken from patent US20070048372A1, “Method for treating non-inflammatory osteoarthritic pain” (SRZ Properties, Inc., priority 2005, published 2007).
Entries after “also recorded” stand apart in the source; their conditions may differ.

Experiments:
[1] = test system: rat formalin paw test (late phase); assay: Rat formalin paw test (late phase): number of flinches and licking time; format: in vivo, rat (Rj: Wistar (Han))
Description: Rats were given an intraplantar injection of 5% formalin (50 μl) into the posterior left paw. This treatment induces a recognizable flinching and licking response of the affected paw in control animals. The number of flinches was counted for 15 minutes, beginning 20 minutes after injection of formalin. The time spent licking the affected paw was also recorded.
Male Rj: Wistar (Han) rats, 10 per group, weighing 100-130 g at the beginning of the experiments were studied per group. The test was performed blind.
Lacosamide (20 mg/kg), gabapentin (50 and 100 mg/kg), combinations of lacosamide (20 mg/kg) with gabapentin (50 and 100 mg/kg), and vehicle were administered i.p. 10 minutes before injection of formalin.
Lacosamide (10 and 20 mg/kg), morphine (2 and 4 mg/kg), combinations of lacosamide (10 and 20 mg/kg) with morphine (2 and 4 mg/kg), and vehicle were administered i.p. 10 minutes before injection of formalin.
Lacosamide (10 mg/kg), duloxetine (8 mg/kg), a combination of lacosamide (10 mg/kg) with duloxetine (8 mg/kg), and vehicle were administered i.p. 10 minutes before injection of formalin.
Lacosamide (10 and 20 mg/kg), memantine (4 and 8 mg/kg), combinations of lacosamide (10 and 20 mg/kg) with memantine (4 and 8 mg/kg), and vehicle were administered i.p. 10 minutes before injection of formalin.
Lacosamide (10 and 20 mg/kg), naproxen (8 and 16 mg/kg), combinations of lacosamide (10 and 20 mg/kg) with […] (8 and 16 mg/kg), and vehicle were administered i.p. 10 minutes before injection of formalin. Morphine (8 mg/kg) was included as a comparative treatment.

[2] = test system: biceps muscle grip strength after TNF-induced muscle pain; assay: Biceps muscle grip strength after TNF-induced muscle pain; format: in vivo, rat (Sprague Dawley); conditions: for reversal of TNF-induced reduction of grip strength: 6 h after TNF i.m., 30 to 60 minutes after drug
Description: (§1) Adult male Sprague Dawley rats with a body weight of 250 g to 300 g were used (supplier: Charles River, Sulzfeld, Germany). Animals were group-housed (3 animals per cage) and maintained in a room with controlled temperature (21-22° C.) and a reversed light-dark cycle (12 h/12 h) with food and water available ad libitum. All experiments were approved by the Bavarian State animal experimentation committee and carried out in accordance with its regulations.
(§2) Recombinant rat tumor necrosis factor alpha (herein referred to as TNF) was obtained from R&D Systems, Minneapolis, Minn., U.S.A. TNF was diluted in 0.9% NaCl and used in a concentration of 1 μg in 50 μl. Injections were performed in short halothane narcosis with a 30 g needle bilaterally into the gastrocnemius or into the biceps brachii muscle. All rats were used to the behavioral tests before injections and baseline values were recorded over three test days.
Grip strength of the forelimbs was tested with a digital grip force meter (DFIS series, Chatillon, Greensboro, NC, U.S.A.). The rat was positioned to grab the grid with the forelimbs and was gently pulled so that the grip strength could be recorded. Means of three trials were calculated. The effect of the TNF treatment was calculated for each animal separately and only animals with a significant TNF effect were included for further analysis.
Rats were injected with TNF into the biceps brachii muscle at 8 am. Six hours later, grip strength of the forelimbs was tested with a digital grip force meter. Test drug was administered, and grip strength was again tested after 30 to 60 minutes.
(§3) The rats, initially 10 per group, were treated with either 3, 10 or 30 mg/kg lacosamide, 2 mg/kg metamizol, 30 or 100 mg/kg pregabalin, 100 mg/kg gabapentin, or the NaCl vehicle, i.p. (intraperitoneally). Volume of i.p. injections was 0.5 ml. A pilot study was performed to confirm that i.m. (intramuscular) injection of 1 μg TNF into the gastrocnemius muscle was sufficient to induce pressure hyperalgesia.
(§4) Data are shown in graphs displaying means and standard errors of the means (SEM). Pre- and post-treatment data were compared using ANOVA (analysis of variance) and a Tukey post hoc test. Means of treatment groups were compared using a one-way ANOVA and Dunnett's post hoc test. Maximal possible effects (MPE) were calculated for all types of treatment.

[3] = test system: muscle pressure hyperalgesia induced by TNF; assay: TNF-induced muscle pressure hyperalgesia (Randall-Selitto, withdrawal threshold to muscle pressure); format: in vivo, rat (Sprague Dawley); conditions: for reversal of muscular mechanical hyperalgesia (withdrawal threshold to muscle pressure): 18 h after TNF i.m., 30 to 60 minutes after drug
Description: as §1, §2
Mechanical withdrawal thresholds to muscle pressure were measured with an analgesimeter (Ugo Basile, Comerio, Italy). The rat was allowed to crawl into a sock which helps the rat to relax. The hind limbs were positioned such that an increasing pressure could be applied onto the gastrocnemius muscle (maximum 250 g). The pressure needed to elicit withdrawal was recorded. Means of 3 trials for each hind limb were calculated (interstimulus interval of >30 sec). Only animals with a significant TNF effect were included for further analysis.
Rats were injected with TNF into the gastrocnemius muscle at 2 pm. Eighteen hours later, rats were tested for pressure hyperalgesia pre- and post-administration of the test drug. Rats were tested for pressure hyperalgesia 30 to 60 minutes after drug administration.
as §3, §4

CC12CC3CC(C)(C1)CC(N)(C3)C2 [Memantine]
Licking time % change (a) compared with vehicle control ([1]; Example 6, 4 mg/kg i.p. alone): +25% (a) | Licking time (seconds) mean ± SEM ([1]; Example 6, 4 mg/kg i.p. alone): 219.9 ± 21.8 NS (a) seconds | No. of flinches % change (a) compared with vehicle control ([1]; Example 6, 4 mg/kg i.p. alone): −3% (a) | No. of flinches mean ± SEM ([1]; Example 6, 4 mg/kg i.p. alone): 161.4 ± 26.3 NS (a) | increase of the time spent licking as compared with vehicle controls ([1]; Example 6, 4 mg/kg i.p. alone): 25% | Licking time % change (a) compared with vehicle control ([1]; Example 6, 8 mg/kg i.p. alone): +35% (a) | Licking time (seconds) mean ± SEM ([1]; Example 6, 8 mg/kg i.p. alone): 237.3 ± 18.9 (a) seconds | No. of flinches % change (a) compared with vehicle control ([1]; Example 6, 8 mg/kg i.p. alone): −20% (a) | No. of flinches mean ± SEM ([1]; Example 6, 8 mg/kg i.p. alone): 132.3 ± 24.6 NS (a) | increase of the time spent licking as compared with vehicle controls ([1]; Example 6, 8 mg/kg i.p. alone): 35% | effect on the number of flinches as compared with vehicle controls ([1]; Example 6, 4 and 8 mg/kg i.p. alone): did not clearly affect

COc1ccc2cc([C@H](C)C(=O)O)ccc2c1 [Naproxen]
Licking time % change (a) compared with vehicle control ([1]; Example 7, 8 mg/kg i.p. alone): +16% (a) | Licking time (seconds) mean ± SEM ([1]; Example 7, 8 mg/kg i.p. alone): 222.1 ± 21.1 NS (a) seconds | No. of flinches % change (a) compared with vehicle control ([1]; Example 7, 8 mg/kg i.p. alone): +30% (a) | No. of flinches mean ± SEM ([1]; Example 7, 8 mg/kg i.p. alone): 148.0 ± 35.5 NS (a) | Licking time % change (a) compared with vehicle control ([1]; Example 7, 16 mg/kg i.p. alone): −1% (a) | Licking time (seconds) mean ± SEM ([1]; Example 7, 16 mg/kg i.p. alone): 190.1 ± 25.4 NS (a) seconds | No. of flinches % change (a) compared with vehicle control ([1]; Example 7, 16 mg/kg i.p. alone): +2% (a) | No. of flinches mean ± SEM ([1]; Example 7, 16 mg/kg i.p. alone): 116.6 ± 20.7 NS (a) | effect on the number of flinches or the time spent licking as compared with vehicle controls ([1]; Example 7, 8 and 16 mg/kg i.p. alone): did not clearly affect

CC(C)C[C@H](CN)CC(=O)O [pregabalin]
MPE (maximal possible effect) on biceps muscle grip strength, compared with vehicle ([2]; 100 mg/kg i.p.): significantly different from vehicle | reversal of TNF-induced reduction of grip strength ([2]; 100 mg/kg i.p.): significant reversal; also recorded: improved grip strength | MPE (maximal possible effect) on muscle pressure hyperalgesia, compared with vehicle ([3]; 30 mg/kg i.p.): significantly different from vehicle | reversal of muscular mechanical hyperalgesia (withdrawal threshold to muscle pressure) ([3]; 30 mg/kg i.p.): significant reversal | MPE (maximal possible effect) on muscle pressure hyperalgesia, compared with vehicle ([3]; 100 mg/kg i.p.): significantly different from vehicle | reversal of muscular mechanical hyperalgesia (withdrawal threshold to muscle pressure) ([3]; 100 mg/kg i.p.): significant reversal | full reversal of the muscle hyperalgesia ([3]; doses tested: pregabalin 30 and 100 mg/kg, gabapentin 100 mg/kg i.p.): Neither pregabalin nor gabapentin led to a full reversal

Cc1c(N(C)CS(=O)(=O)[O-])c(=O)n(-c2ccccc2)n1C.[Na+] [metamizol]
MPE (maximal possible effect) on biceps muscle grip strength, compared with vehicle ([2]; 2 mg/kg i.p.): significantly different from vehicle | reversal of TNF-induced reduction of grip strength ([2]; 2 mg/kg i.p.): significant reversal | MPE (maximal possible effect) on muscle pressure hyperalgesia, compared with vehicle ([3]; 2 mg/kg i.p.): significantly different from vehicle | reversal of muscular mechanical hyperalgesia (withdrawal threshold to muscle pressure) ([3]; 2 mg/kg i.p.): complete reversal
